In this data set the test system is rodent carcinogenicity bioassays, tumor incidence. The data set is described as follows: CCRIS carcinogenicity studies. Put shortly: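 Archive of carcinogenicity, mutagenicity, tumor promotion and tumor inhibition results drawn from journals, NCI reports and other sources, expert-reviewed; covers 1985-2011 and is no longer updated.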

The structures appear in SMILES notation. Active and inactive are the calls of the source. No rule for the calls is given here.

On to `Cc1ccccc1N`, for which the carcinogen call is, setting by setting: (Species: MOUSE, Strain/Sex: B6C3F1/FEMALE, Route: ORAL, Dose: 0, 1000, 3000 PPM IN DIET FOR 103 WK, Dose: 0, 1000, 3000 PPM IN DIET FOR 103 WK, Tumor Site: Type of Lesion: LIVER: HEPATOCELLULAR CARCINOMA OR HEPATOCELLULAR ADENOMA) “active; positive”; (Species: MOUSE, Strain/Sex: B6C3F1/MALE, Route: ORAL, Dose: 0, 1000, 3000 PPM IN DIET FOR 102-103 WK, Dose: 0, 1000, 3000 PPM IN DIET FOR 102-103 WK, Tumor Site: Type of Lesion: BLOOD VESSELS: HEMANGIOMA OR HEMANGIOSARCOMA) “active; positive”; (Species: MOUSE, Strain/Sex: CD-1/MALE,FEMALE, Route: ORAL, Dose: 0, 16000, 32000 MG/KG FOR 3 MO, THEN 0, 8000, 16000 MG/KG FOR 15 MO, Dose: 0, 16000, 32000 MG/KG FOR 3 MO, THEN 0, 8000, 16000 MG/KG FOR 15 MO, Tumor Site: Type of Lesion: BLOOD VESSELS: HEMANGIOMA, HEMANGIOSARCOMA) “active; positive”; (Species: RAT, Strain/Sex: CD-1/MALE, Route: ORAL, Dose: 0, 8000, 16000 MG/KG FOR 3 MO, THEN 0, 4000, 8000 MG/KG FOR 15 MO, Dose: 0, 8000, 16000 MG/KG FOR 3 MO, THEN 0, 4000, 8000 MG/KG FOR 15 MO, Tumor Site: Type of Lesion: INTEGUMENTARY SYSTEM (SUBCUTANEOUS TISSUE): FIBROMA, FIBROSARCOMA) “active; positive”; (Species: RAT, Strain/Sex: F344/FEMALE, Route: ORAL, Dose: 0, 3000, 6000, PPM IN DIET FOR 104 WK (STUDY DURATION: 104 WK), Dose: 0, 3000, 6000, PPM IN DIET FOR 104 WK (STUDY DURATION: 104 WK), Tumor Site: Type of Lesion: SPLEEN OR PERITONEUM: SARCOMA) “active; positive”; (Species: RAT, Strain/Sex: F344/FEMALE, Route: ORAL, Dose: 0, 3000, 6000 PPM IN DIET FOR 104 WK, Dose: 0, 3000, 6000 PPM IN DIET FOR 104 WK, Tumor Site: Type of Lesion: SPLEEN: ANGIOSARCOMA, SARCOMA (NOS) OR ANGIOSARCOMA OR OSTEOSARCOMA, URINARY BLADDER: TRANSITIONAL CELL CARCINOMA, TRANS) “active; positive”. For the same molecule, the carcinogen call (Species: RAT, Strain/Sex: F344/MALE, Route: ORAL, Dose: 0, 3000, 6000 PPM IN DIET FOR 101-104 WK, Dose: 0, 3000, 6000 PPM IN DIET FOR 101-104 WK, Tumor Site: Type of Lesion: INTEGUMENTARY SYSTEM (SUBCUTANEOUS TISSUE): FIBROMA, SPLEEN: FIBROMA, ANGIOSARCOMA, MULTIPLE ORGANS OR TUNICA VAGINALIS:, Tumor Site: Type of Lesion: INTEGUMENTARY SYSTEM (SUBCUTANEOUS TISSUE): FIBROMA, SPLEEN: FIBROMA, ANGIOSARCOMA, MULTIPLE ORGANS OR TUNICA VAGINALIS:) is “active; positive”; the carcinogen call (Species: RAT, Strain/Sex: F344/MALE, Route: ORAL, Dose: 0, 3000, 6000 PPM IN DIET FOR 104 WK (STUDY DURATION: 104 WK), Dose: 0, 3000, 6000 PPM IN DIET FOR 104 WK (STUDY DURATION: 104 WK), Tumor Site: Type of Lesion: SPLEEN OR PERITONEUM: SARCOMA) was “active; positive”; the carcinogen call (Species: RAT, Strain/Sex: F344/MALE, Route: ORAL, Dose: 4.0 G/KG IN DIET FOR 72 WK (TOTAL DOSE 0.22 MOL/RAT), Tumor Site: Type of Lesion: SPLEEN: FIBROMA, INTEGUMENTARY SYSTEM (SKIN): FIBROMA, MAMMARY GLAND: FIBROADENOMA, ADENOCARCINOMA, PERITONEAL CAVITY: M, Tumor Site: Type of Lesion: SPLEEN: FIBROMA, INTEGUMENTARY SYSTEM (SKIN): FIBROMA, MAMMARY GLAND: FIBROADENOMA, ADENOCARCINOMA, PERITONEAL CAVITY: M) is “active; positive”.
With `O=[N+]([O-])c1c2ccccc2c2ccc3cccc4ccc1c2c43`, the carcinogen call (Species: MOUSE, Strain/Sex: ICR/FEMALE, Route: INTRAPERITONEAL, Dose: 0, 14 UG TOTAL DOSE (2 UG/5 µL, 4 UG/10 µL, 8 UG/20 µL DMSO ON DAYS 1,8 AND 15), 70 UG TOTAL DOSE (10 UG/5 µL, 20 UG/10, Dose: 0, 14 UG TOTAL DOSE (2 UG/5 µL, 4 UG/10 µL, 8 UG/20 µL DMSO ON DAYS 1,8 AND 15), 70 UG TOTAL DOSE (10 UG/5 µL, 20 UG/10) was “inactive; negative” and the carcinogen call (Species: MOUSE, Strain/Sex: ICR/MALE, Route: INTRAPERITONEAL, Dose: 0, 14 UG TOTAL DOSE (2 UG/5 µL, 4 UG/10 µL, 8 UG/20 µL DMSO ON DAYS 1,8 AND 15), 70 UG TOTAL DOSE (10 UG/5 µL, 20 UG/10, Dose: 0, 14 UG TOTAL DOSE (2 UG/5 µL, 4 UG/10 µL, 8 UG/20 µL DMSO ON DAYS 1,8 AND 15), 70 UG TOTAL DOSE (10 UG/5 µL, 20 UG/10) is “inactive; negative”.
On to `Nc1nc(-c2ccc([N+](=O)[O-])o2)cs1`, for which the carcinogen call reads like this: (Species: RAT, Strain/Sex: F344/FEMALE, Route: ORAL, Dose: 0.166% IN DIET FOR 52 WK, Tumor Site: Type of Lesion: FORESTOMACH: PAPILLOMA, CARCINOMA, URINARY BLADDER: PAPILLOMA, CARCINOMA) “active; positive”; (Species: RAT, Strain/Sex: F344/MALE,FEMALE, Route: SUBCUTANEOUS, Dose: 10 MG/KG IN DMSO:WATER 1/WK FOR 8 WK, THEN 1.4 MG/RAT 1/WK FOR 46 WK, Tumor Site: Type of Lesion: INJECTION SITE: SARCOMA) “active; positive”.
With `FC(F)(Cl)Cl`, the carcinogen call by setting is: (Species: MOUSE, Strain/Sex: SWISS/FEMALE, Route: INHALATION, Dose: 0, 1000, 5000 PPM 4 HR/D 5 D/WK FOR 78 WK (STUDY DURATION: LIFETIME), Dose: 0, 1000, 5000 PPM 4 HR/D 5 D/WK FOR 78 WK (STUDY DURATION: LIFETIME)) “inactive; negative”; (Species: MOUSE, Strain/Sex: SWISS/MALE, Route: INHALATION, Dose: 0, 1000, 5000 PPM 4 HR/D 5 D/WK FOR 78 WK (STUDY DURATION: LIFETIME), Dose: 0, 1000, 5000 PPM 4 HR/D 5 D/WK FOR 78 WK (STUDY DURATION: LIFETIME)) “inactive; negative”; (Species: RAT, Strain/Sex: SPRAGUE-DAWLEY/FEMALE, Route: INHALATION, Dose: 0, 1000, 5000 PPM 4 HR/D 5 D/WK FOR 104 WK (STUDY DURATION: LIFETIME), Dose: 0, 1000, 5000 PPM 4 HR/D 5 D/WK FOR 104 WK (STUDY DURATION: LIFETIME)) “inactive; negative”; (Species: RAT, Strain/Sex: SPRAGUE-DAWLEY/FEMALE, Route: INHALATION, Dose: 0, 1000, 5000 PPM IN AIR 4 HR/D 5 D/WK FOR 104 WK (STUDY DURATION: LIFETIME), Dose: 0, 1000, 5000 PPM IN AIR 4 HR/D 5 D/WK FOR 104 WK (STUDY DURATION: LIFETIME), Tumor Site: Type of Lesion: [BRAIN WAS ONLY SITE EVALUATED]) “inactive; negative”; (Species: RAT, Strain/Sex: SPRAGUE-DAWLEY/MALE, Route: INHALATION, Dose: 0, 1000, 5000 PPM 4 HR/D 5 D/WK FOR 104 WK (STUDY DURATION: LIFETIME), Dose: 0, 1000, 5000 PPM 4 HR/D 5 D/WK FOR 104 WK (STUDY DURATION: LIFETIME)) “inactive; negative”; (Species: RAT, Strain/Sex: SPRAGUE-DAWLEY/MALE, Route: INHALATION, Dose: 0, 1000, 5000 PPM IN AIR 4 HR/D 5 D/WK FOR 104 WK (STUDY DURATION: LIFETIME), Dose: 0, 1000, 5000 PPM IN AIR 4 HR/D 5 D/WK FOR 104 WK (STUDY DURATION: LIFETIME), Tumor Site: Type of Lesion: [BRAIN WAS ONLY SITE EVALUATED]) “inactive; negative”.
As for `CO[Si](CCC1CCC2OC2C1)(OC)OC` (stereo not given), the carcinogen call (Species: MOUSE, Strain/Sex: C3H/MALE, Route: DERMAL, Dose: 0, 25 MG IN ACETONE 3/WK FOR DURATION OF STUDY (STUDY DURATION: LIFETIME), Tumor Site: Type of Lesion: SKIN: CARCINOMA) is “active; positive”.

The values are drawn from PubChem BioAssay AID1259411 (Chemical Carcinogenesis Research Information System (CCRIS), 2018).
